Data from ChEMBL document CHEMBL1201862, “PubChem BioAssay data set” (2004).
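Exposure lasted 48 hours, with cells grown in 96-well plates and compounds tested at five concentrations. At the GI50, growth is halved.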 The source made the active and inactive calls. No stated cut-off is given here; in the data, active = GI50 up to about 1.1 µM and inactive = higher.

How the values were obtained:
Assay in all cases: growth of human tumour cells (NCI), 48 h
A498 = tested on: A498
BT-549 = tested on: BT-549
CAKI-1 = tested on: CAKI-1
COLO 205 = tested on: COLO 205
DLD-1 = tested on: DLD-1
EKVX = tested on: EKVX
HCT-15 = tested on: HCT-15
HL-60 = tested on: HL-60
HOP-92 = tested on: HOP-92
HT-29 = tested on: HT-29
IGROV-1 = tested on: IGROV-1
MCF7 = tested on: MCF7
NCI-H522 = tested on: NCI-H522
OVCAR-4 = tested on: OVCAR-4
OVCAR-5 = tested on: OVCAR-5
SF-295 = tested on: SF-295
SNB-75 = tested on: SNB-75
T47D = tested on: T47D
TK-10 = tested on: TK-10
UO-31 = tested on: UO-31

Cc1c2cnccc2c(C)c2c1c1ccccc1n2CCOC(=O)c1ccccc1
GI50 (A498): 1.75 µM (inactive)
GI50 (BT-549): 33 µM (inactive)
GI50 (CAKI-1): 6.24 µM (inactive)
GI50 (COLO 205): 7.8 µM (inactive)
GI50 (DLD-1): 7.69 µM (inactive)
GI50 (EKVX): 13.3 µM (inactive)
GI50 (HCT-15): 11.9 µM
GI50 (HL-60): 5.85 µM (inactive)
GI50 (HOP-92): 27.7 µM (inactive)
GI50 (HT-29): 16.4 µM (inactive)
GI50 (IGROV-1): 9.44 µM (inactive)
GI50 (MCF7): 9.64 µM (inactive)
GI50 (NCI-H522): 11.4 µM (inactive)
GI50 (OVCAR-4): 16.5 µM (inactive)
GI50 (OVCAR-5): 14.4 µM (inactive)
GI50 (SF-295): 11 µM (inactive)
GI50 (SNB-75): 22.9 µM (inactive)
GI50 (T47D): 30 µM (inactive)
GI50 (TK-10): 11.2 µM (inactive)
GI50 (UO-31): 3.1 µM (inactive)
